According to patent US20130324469A1, “FIBRINOGEN AND KIDNEY DAMAGE” (THE BRIGHAM AND WOMEN'S HOSPITAL, INC., priority 2010, published 2013):
“Also recorded” adds a separate entry of the source.

Tests used:
rats = assay: Galactosamine-induced liver toxicity in rats (specificity of urinary fibrinogen); type: in vivo, rat; settings: 1.1 g/kg ip, 24 h
LLC-PK1 cells = assay: BrdU uptake (cell proliferation) of LLC-PK1 cells after mineral-oil hypoxia; type: cell-based, pig; settings: 6 μM; 48 h post hypoxia; serum free; vs random peptide
Description: FIG. 4E is a bar graph showing cell proliferation measured by bromodeoxyuridine (5-bromo-2-deoxyuridine (BrdU) uptake, by LLC-PK1 cells, 48 h post onset of hypoxia at 450 nm wavelength. Absorbance obtained from untreated cells was taken as 100% (n=6 wells/group). * represents p<0.05 as determined by Student's t-test between the two groups.
In vitro experiments using proximal tubular epithelial cells (LLC-PK1) were also performed. The renal tubular epithelial cell line, LLC-PK1, established from pig renal cortex was obtained from ATCC (Manassas, Va.) and maintained in DMEM containing 10% FBS. Two thousand five hundred LLC-PK1 cells were plated in 96 well plate for 24 h in DMEM 10% fetal bovine serum (FBS) at which time they formed a 50% confluent monolayer in the well. They were pretreated with 6 μM of Bβ15-42 or random peptide for 6 h and were immersed in 100 μl of mineral oil on top of DMEM medium without any serum for 6 h. […] Bromodeoxyuridine (5-bromo-2-deoxyuridine (BrdU) was measured as an index of cell proliferation by incubating cells with BrdU for 2 h before harvesting and the absorbance was quantified using a spectrophotometer at 450 nm wavelength as per manufacturer's instructions (Millipore, Bellerica, Mass.). Absorbance obtained from untreated cells was taken as 100% (n=6 wells/group) and the experiment was repeated twice.

VE-Cadherin = target: T1, VE-Cadherin (Homo sapiens, UniProt P33151); settings: disrupts interaction of Fg with VE-Cadherin on endothelial cells; cited from earlier work
T1 sequence (P33151 48-784): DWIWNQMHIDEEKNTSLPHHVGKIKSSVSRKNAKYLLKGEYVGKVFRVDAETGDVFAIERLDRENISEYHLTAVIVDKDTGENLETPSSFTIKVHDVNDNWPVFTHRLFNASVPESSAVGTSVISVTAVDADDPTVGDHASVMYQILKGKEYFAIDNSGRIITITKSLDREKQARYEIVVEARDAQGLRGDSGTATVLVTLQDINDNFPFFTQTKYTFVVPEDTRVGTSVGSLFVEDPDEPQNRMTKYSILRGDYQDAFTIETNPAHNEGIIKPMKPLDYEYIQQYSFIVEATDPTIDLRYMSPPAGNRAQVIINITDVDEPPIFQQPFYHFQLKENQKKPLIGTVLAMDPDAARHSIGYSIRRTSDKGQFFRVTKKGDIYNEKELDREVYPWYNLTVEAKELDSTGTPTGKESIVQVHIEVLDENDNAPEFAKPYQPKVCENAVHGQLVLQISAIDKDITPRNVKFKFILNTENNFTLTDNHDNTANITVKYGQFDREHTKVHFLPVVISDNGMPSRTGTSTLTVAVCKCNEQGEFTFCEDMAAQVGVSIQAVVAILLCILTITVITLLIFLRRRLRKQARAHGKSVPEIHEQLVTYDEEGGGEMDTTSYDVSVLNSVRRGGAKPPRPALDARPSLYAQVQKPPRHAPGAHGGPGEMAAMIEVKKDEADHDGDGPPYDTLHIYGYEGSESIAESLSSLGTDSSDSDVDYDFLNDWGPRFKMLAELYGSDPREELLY

[1] = system: myocardial infarction in animal models; settings: suprapharmacological doses; cited from earlier work
[2] = system: acute lung injury in animal models; settings: suprapharmacological doses; cited from earlier work
[3] = system: renal I/R injury in C57BL/6 mice; assay: 27 min bilateral renal ischemia/reperfusion (I/R) injury in mice, peptide given iv after reperfusion; type: in vivo, mouse
Description: FIG. 3 is a set of four bar graphs showing that Bβ15-42 peptide protects mice from renal ischemia/reperfusion (I/R) injury. Male C57Bl6 mice were subjected to 27 minutes bilateral renal ischemia/reperfusion injury or sham surgery and 3.6 mg/kg of Bβ15-42 peptide or random peptide was administered intravenously 1 min following reperfusion. […] Serum creatinine (SCr), blood urea nitrogen (BUN) as indicators of renal dysfunction and urinary levels of fibrinogen (Fg) and kidney injury molecule-1 (Kim-1) as indicators of kidney injury were measured at 24 and 48 h in all the groups. (n=5/group of sham, n=10/group at 24 hours and n=5/group at 48 hours).* represents p<0.05 as determined by one way ANOVA in comparison with sham mice.
Blood and urine analysis was performed as follows. At sacrifice, blood was collected from dorsal aorta in heparinized tubes. Serum creatinine (SCr) concentrations were measured using a Beckman Creatinine Analyzer II. Blood urea nitrogen (BUN) was measured spectrophotometrically at 340 nm using a commercially available kit (Thermo Scientific, Rockford, Ill.) as described before (Krishnamoorthy et al., Toxicol Sci. 2010; 118(1):298-306).
Urines were collected by placing animals in individual metabolic cages and one ml of RNAlater (Ambion, Austin, Tex.) was added to the tubes to preserve RNA. Urinary Kidney Injury Molecule-1 (Kim-1 in rats and KIM-1 in humans) was measured using previously established luminex-based assays (Vaidya et al., Nat Biotechnol. 2010; 28(5):478-485; Vaidya et al., Clinical and Translational Science. 2008; 1(3):200-208). Urinary Kim-1 in mice was measured using a luminex-based assay. Urinary N-acetyl-β-D-glucosaminidase (NAG) was measured spectrophotometrically according to the manufacturers' protocols (Roche diagnostics, Basel Switzerland). Urinary creatinine concentration was used to normalize biomarker measurements in order to account for the influence of urinary dilution on biomarker concentrations. Fibrinogen in mouse, rat and human urines was measured using a commercially available species-specific luminex assay based kit from Millipore (Billerica, Mass.).
Immunostaining, to evaluate the cellular expression profile of Fg whole protein and Fgα, Fgβ and Fgγ chains was performed as follows. Kidney tissues were perfused with cold PBS before harvesting and then fixed in formalin for 16 h and embedded in paraffin. The sections incubated overnight at 4° C. in rabbit monoclonal anti-Fibrinogen alpha (Epitomics, Burlingame, Calif.), rabbit polyclonal anti-Fibrinogen beta (ProteinTech Group, Chicago, Ill.), rabbit polyclonal anti-Fibrinogen gamma (ProteinTech Group, Chicago, Ill.), anti-rat fibrinogen (Nordic Immunological Laboratories, Tilburg, The Netherlands), anti-human fibrinogen (Sigma-Aldrich, St. Louis, Mo.) and rabbit monoclonal anti-Ki67 (Vector Laboratories, Burlingame, Calif.). The primary antibody was detected using goat anti-rabbit Cy3 labeled and donkey anti goat Cy3 labeled secondary antibodies (Jackson ImmunoResearch Laboratories, West Grove, Pa.). DAPI (Sigma Aldrich, St. Louis, Mo.) was used for nuclear staining. The tissue sections were mounted using ProLong Gold Antifade Reagent (Invitrogen, Carlsbad, Calif.). The images were captured at 100× for rats, 60× for mice and humans using NIKON Eclipse 90i fluorescence microscope.
Endotoxin free Bβ15-42 ([…]) and random peptide ([…]) were custom synthesized (Invitrogen, Carlsbad, Calif.) with 95% modification and N-terminal amine group addition and free acid modification. Bβ15-42 or random peptide (3.6 mg/kg) was administered intravenously (iv) 1 min after reperfusion following 27 min bilateral renal I/R injury in C57BL/6 mice (n=5 to 10/group). Forty male C57Bl6 wild type mice were anesthetized using pentobarbital sodium (30 mg/kg, ip) and subjected to 27 min of bilateral renal I/R surgery by the retroperitoneal approach. Sham surgery was performed with exposure of both kidneys but without induction of ischemia. […]

[4] = system: patients with acute myocardial infarction; settings: phase IIa; patients whose endothelial barrier integrity had not been compromised; cited from earlier work
[5] = mean ± SEM, listed as galactosamine
[6] = 3.6 mg/kg iv, 24 and 48 h, vs random peptide
[7] = 3.6 mg/kg iv, 24 h after I/R, vs random peptide

N[C@H]1C(O)O[C@H](CO)[C@H](O)[C@@H]1O (stereo partly drawn) [Galactosamine, galactosamine]
histopathological score kidney (rats): 0
histopathological score liver (rats): 2
histopathological score kidney (rats; listed as galactosamine): no signs of kidney structural or functional damage
histopathological score liver (rats; listed as galactosamine): extensive hepatocellular damage
ALT (rats; mean ± SEM): 422.8 ± 121.9 U/l
AST (rats; mean ± SEM): 246.0 ± 57.5 U/l
BUN (rats; mean ± SEM): 19.1 ± 1.1 mg/dL
Scr (rats; mean ± SEM): 0.5 ± 0.0 mg/dL
kidney Fgα gene expression (FC relative to control) (rats; mean ± SEM): 1.2 ± 0.1 FC
kidney Fgβ gene expression (FC relative to control) (rats; mean ± SEM): 1.0 ± 0.0 FC
kidney Fgγ gene expression (FC relative to control) (rats; mean ± SEM): 0.9 ± 0.1 FC
kidney Kim-1 gene expression (FC relative to control) (rats; mean ± SEM): 1.0 ± 0.1 FC
urinary excretion of Fg (rats; mean ± SEM): 26.0 ± 26.0 ng/mg Cr
ALT (rats; [5]): significant increase
AST (rats; [5]): significant increase
kidney Fgα gene expression (FC relative to control) (rats; [5]): did not lead to any increase
kidney Fgβ gene expression (FC relative to control) (rats; [5]): did not lead to any increase
kidney Fgγ gene expression (FC relative to control) (rats; [5]): did not lead to any increase
urinary excretion of Fg (rats; [5]): did not lead to any increase

GHRPLDKKREEAPSLRPAPPPISGGGYR (synthetically generated peptides) [Bβ15-42, naturally occurring 28 amino acid long product cleaved from fibrin fragments; Fgβ chain derived peptide, custom synthesized, endotoxin free]
renal epithelial cell proliferation (BrdU uptake) (LLC-PK1 cells): stimulating renal epithelial cell proliferation
interactions with VE-Cadherin (VE-Cadherin): low affinity
protection from myocardial infarction [1]: protect
protection from acute lung injury [2]: protect
infarct size and vascular congestion ([3]; 3.6 mg/kg iv 1 min after reperfusion, vs random peptide): significant reduction; also recorded: significantly smaller
leukocyte infiltration (myeloperoxidase staining) [3, 6]: similar
mRNA levels of inflammatory cytokines (IL-1β, IL-6, IL-10, TNFα, ICAM) and macrophage marker (CD68) in kidney [3, 6]: no difference
proximal tubular damage in the outer stripe of outer medulla (H & E histopathology) [3, 7]: significant decrease
reduction in kidney dysfunction measured by blood urea nitrogen (BUN) [3, 7]: Approximately 50%
reduction in kidney dysfunction measured by serum creatinine (SCr) [3, 7]: Approximately 50%
reduction in kidney proximal tubular injury measured by urinary Fg [3, 7]: Approximately 50%
reduction in kidney proximal tubular injury measured by urinary kidney injury molecule-1 [3, 7]: Approximately 50%
number of TUNEL positive apoptotic cells in the renal medulla ([3]; 24 h, vs random peptide): similar
apoptosis (TUNEL) in the renal medulla ([3]; 48 h, p<0.05 vs random peptide): significant decrease
proliferative (Ki67 positive) cells in the renal medulla ([3]; 48 h, vs random peptide): significant number of cells appeared to be in a proliferative state
acute tubular injury ([3]; mice, bilateral renal I/R injury): substantially reduced
clinical effect in acute myocardial infarction [4]: successful protective effects
